According to paper PMC6468496 (2019):
Blank lines part the entries; values can stand above or below the compound they belong to.

Tests used:
Experiment in all cases: fluorescence titration (ligand quenching)
Settings in all cases: 125 mM K+, 5 mM Mg2+; 40 mM HEPES pH 7.4, 25 °C, 50 nM ligand, RNA titrated, Hill fit
[1] = tested on: R10K6 (RNA, aptamer) GGGAGACGCAACUGAAUGAAAAUGUCAUUCAAGACUAGGUUGUGACUGCUUAGGCAGUUGUGGACGGCUAAGCCCACCAGAGGUCCGUAACUAGUCGCGUCAC
[2] = tested on: V17 (R10K6 with shortened P4) (RNA, aptamer) GGGAGACGCAACUGAAUGAAAAUGUCAUUCAAGACUAGGUUGUGACAAAGGUUGUGGACGGCUAAGCCCACCAGAGGUCCGUAACUAGUCGCGUCAC
[3] = tested on: V4 (R10K6 without P5 and P5a) (RNA, aptamer) GGGAGACGCAACUGAAUGAAAAUGUCAUUCAAGACUAGGUUGUGACUGCUUAGGCAGUUGUAACUAGUCGCGUCAC
[4] = tested on: R10K6_V11 (RNA, aptamer) GGGAGACGCAACAGACUAGGUUGUGACUGCUUAGGCAGUUGUGGACGGCUAAGCCCACCAGAGGUCCGUAACUAGUCGCGUCAC
[5] = tested on: V8 (R10K6 without stem P5a) (RNA, aptamer) GGGAGACGCAACUGAAUGAAAAUGUCAUUCAAGACUAGGUUGUGACUGCUUAGGCAGUUGUGGACACCAGAGGUCCGUAACUAGUCGCGUCAC
[6] = tested on: V10 (R10K6 with changed J5a/5) (RNA, aptamer) GGGAGACGCAACUGAAUGAAAAUGUCAUUCAAGACUAGGUUGUGACUGCUUAGGCAGUUGUGGACGGCUAAGCCCAAACAAAGUCCGUAACUAGUCGCGUCAC
[7] = tested on: V13 (R10K6 ∆P1∆P2) (RNA, aptamer) GACUAGGUUGUGACUGCUUAGGCAGUUGUGGACGGCUAAGCCCACCAGAGGUCCGUAACUAGUC

SMILES: CN1C[C@@H]2C[C@H]1CN2c1cc2c(cc1F)c(=O)c(C(=O)O)cn2C1CC1
binding [1]: yes

SMILES: CCn1cc(C(=O)O)c(=O)c2cc(F)c(N3CCNCC3)cc21
binding [1]: yes

SMILES: O=c1ccn(C2CC2)c2cc(N3CCNCC3)c(F)cc12
binding [1]: weak

Further lines, results first:

binding [1]: yes
SMILES: CCN1CCN(c2cc3c(cc2F)c(=O)c(C(=O)O)cn3C2CC2)CC1

binding [2]: no | KD [1]: 31 nM | binding [3]: no | KD [4]: 36 nM | KD [5]: 76 nM | KD [6]: 101 nM | KD [7]: 473 nM
SMILES: O=C(O)c1cn(C2CC2)c2cc(N3CCNCC3)c(F)cc2c1=O
